# Laboratory results reported in patent US12616681B2, “Compositions and methods for treating renal injury” (priority 2019, dated 2026).
# Experiments:
# [1] = test system: mice with ischemic AKI (bilateral renal IRI); assay: Renal IRI (ischemic AKI) mouse model: renal function markers; assay type: in vivo, C57/BL6 mice
# Description: Briefly, mice were anesthetized with isoflurane using a vaporizer, and bilateral renal arteries were clamped for 30 min (2, 49). After the ischemic time, clamps were released to induce blood reperfusion. […] Serum and kidney tissue were collected 24 h after renal IRI. […] After reperfusion for 24 h, kidney tissues (˜20 mg) were homogenized in cold PBS containing indomethacin (10 μg/mL) and then centrifuged for 10 min at 12,000 rpm. Protein concentrations of supernatant were determined by BCA assay (ThermoFisher Scientific, Rockford, IL). The PGE2 level was measured using a PGE2 ELISA kit (R&D Systems, Minneapolis, MN) in triplicate. PGE2 levels were expressed as nanograms of PGE2 per milligram of protein. Renal function was assessed by determining the serum levels of blood urea nitrogen (BUN; Abcam), serum creatinine (Agilent 6410 LC-MS/MS, Agilent, Santa Clara, CA), lipocalin-2 (R&D Systems), and kidney injury molecule-1 (KIM-1; R&D Systems) after reperfusion for 24 h. Measurement of serum creatinine was by HPLC. Serum creatinine was assessed using an Agilent 6410 LC-MS/MS system coupled with an Agilent 1200 series HPLC system (Agilent). […] The mixture was centrifuged at 13,000 rpm for 10 min after vigorous vortex, and 1 μL of supernatant was then injected into the LC-MS/MS system. The chromatography separation was performed on a Hypersil GOLD C18 column (150×2.1 mm, 3 m, Thermo Scientific) using a mobile phase of 0.1% formic acid solution and acetonitrile [70:30 (vol/vol)]. The flow rate was 0.2 mL/min. Electrospray ionization was performed in the positive ion mode. The capillary voltage was set at 4,000 V. Nitrogen as the nebulizing gas was set at 15 psi, and the drying gas temperature was set at 300° C., with a flow rate of 6 L/min. The multiple-reaction monitoring mode using specific precursor/production transition was used for quantification. […] The peak areas for all analytes were integrated automatically using Agilent Mass Hunter Analysis software (version B.01.04).
# [2] = test system: mice with ischemic AKI (bilateral renal IRI); assay: Renal IRI model: proinflammatory cytokines and HMGB1; assay type: in vivo, C57/BL6 mice; settings: 24 h after renal IRI, vs IRI-vehicle mice
# Description: Inflammatory cytokine mRNA and protein levels were measured by real-time PCR and ELISA. Kidney tissue and serum were harvested after reperfusion for 24 h. Total RNA was extracted from frozen kidney tissue using TRIzol reagent (ThermoFisher Scientific) according to the manufacturer's protocol. RNA was converted to cDNA using oligo-dT primers. IL-17, TNF-α, and IL-1b mRNA levels were determined by real-time PCR. Serum IL-17 (R&D Systems), TNF-α (R&D Systems), and IL-10 (R&D Systems) were measured using commercial ELISA kits according to the manufacturer's instructions.
# [3] = test system: PGE2 levels in kidney tissue; assay: Renal PGE2 levels in normal mice 1 h after injection (Example 2); assay type: in vivo
# Description: Next, 20 mg kidney tissue was homogenized in […] cold PBS containing indomethacin (10 μg/mL) using a tissue homogenizer. The suspension was sonicated in an ice-water bath for 1 min using cycles of 10 s of sonication with 10 s of cooling, and then they were centrifuged for 10 min at 12,000 rpm. The supernatant was collected for PGE-2 assay. Protein concentrations were determined by bicinchoninic acid assay (Cat. #23225, Thermo Scientific). The PGE2 level in the supernatant was measured using a PGE2 enzyme-linked immunosorbent assay kit (R&D Systems, Minneapolis, MN, USA) in triplicate. PGE-2 levels were expressed as ng of PGE2/mg protein.
# [4] = test system: contrast-induced acute kidney injury (CIAKI) mice; assay: CIAKI mouse model: renal function (serum creatinine, NGAL, KIM-1); assay type: in vivo, C57/BL6 mice
# Description: Female mice were injected with 10 gI/kg of Visipaque (iodixanol) via the tail vein. […] For inhibition of the EP4s, mice were treated with 0.2 mg/kg/day of ONO-AE3-208 by subcutaneous injection for 14 days. Serum and kidney tissue were collected 48 h after the iodixanol injection.
# Renal function was assessed by determining the serum levels of creatinine (Arbor Assays, Ann Arbor, MI, USA), NGAL (R&D Systems), and KIM-1 (R&D Systems) at 48 h after the iodixanol injection.
# [5] = test system: contrast-induced acute kidney injury (CIAKI) mice; assay: CIAKI mouse model: necrotic and apoptotic cell death, gross findings; assay type: in vivo, C57/BL6 mice; settings: 48 h after CM
# Description: Kidneys were harvested at 48 h after the CM injection, fixed in 4% phosphate-buffered formalin, and embedded in paraffin. To evaluate necrosis, […] paraffin sections were stained with hematoxylin and eosin. Tubular injury was scored semi-quantitatively according to a system by a pathologist who examined at least 20 separate fields (400× magnification) in the outer medulla, which is the zone most sensitive to ischemic injury. The scoring system was as follows: 0, no damage; 1, patchy isolated unicellular necrosis; 2, tubular necrosis <25%; 3, tubular necrosis 25-50%; and 4, tubular necrosis >50%. At least 20 consecutive high-power fields per section were scored by two operators blind to the details of the experiment. To analyze the frequency of apoptosis, […] paraffin sections were subjected to terminal deoxynucleotidyl transferase-mediated dUTP nick-end labeling (TUNEL) assay (Millipore, Temecula, CA, USA) according to the manufacturer's protocol. Four […] paraffin sections were incubated with the TUNEL reaction mixture at 37° C. for 1 h, followed by incubation with a horseradish peroxidase-conjugated detection antibody. The signals were visualized using diaminobenzidine (Sigma-Aldrich). After counterstaining with Mayer's hematoxylin, TUNEL-positive cells were counted in at least five separate fields (640× magnification) in the outer medulla, and the apoptosis index (%, number of apoptosis cells/total number of cells) was calculated using GENASIS software.
# [6] = 24 h after renal IRI, vs IRI-vehicle mice, dosing before and after IRI
compound,measurement,setting,value
CCCC[S+]([O-])c1sc2nc(-c3cccs3)cc(-c3ccccc3)c2c1N (centres unmarked) [SW033291],BUN (serum),[1]; [6],significantly reducing
same,KIM-1 (serum),[1]; [6],significantly reducing
same,NGAL (serum),[1]; [6],significantly reducing
same,creatinine (serum),[1]; [6],significantly reducing
same,"induction of NGAL, KIM-1, and creatinine","[1]; single pre-IRI dose (Pre), time course",notable protection
same,HMGB1 levels in kidney tissue,[2],reduced
same,induction of IL-10 (protein only),[2],blocked induction
same,induction of IL-17,[2],blocked induction
same,induction of TNF-α,[2],blocked induction
same,increase of renal PGE2 vs vehicle-administered normal mice,"[3]; 1 h after administration, average",three times
same,renal PGE2 levels,"[3]; normal mice, 1 h after ip 5 mg/kg",29.71 ± 2.79 ng/mg
same,"serum creatinine, absence or presence of ONO-AE3-208","[4]; CIAKI mice (FIG. 15E), SW033291 line = CM + SW033291, ONO-AE3-208 line = CM + ONO-AE3-208 + SW033291",0.50 ± 0.10 mg/dL
same,"serum NGAL, absence or presence of ONO-AE3-208","[4]; CIAKI mice (FIG. 15F), SW033291 line = CM + SW033291, ONO-AE3-208 line = CM + ONO-AE3-208 + SW033291",140.41 ± 25.52 ng/mL
same,"serum KIM-1, absence or presence of ONO-AE3-208","[4]; CIAKI mice (FIG. 15G), SW033291 line = CM + SW033291, ONO-AE3-208 line = CM + ONO-AE3-208 + SW033291",0.09 ± 0.05 ng/mL
same,serum creatinine,"[4]; CIAKI mice, CM + drug, 48 h after CM (FIG. 11C)",1.10 ± 0.11 mg/dL
same,serum NGAL,"[4]; CIAKI mice, CM + drug, 48 h after CM (FIG. 11D)",140.41 ± 25.52 ng/mL
same,serum KIM-1,"[4]; CIAKI mice, CM + drug, 48 h after CM (FIG. 11E)",0.43 ± 0.30 ng/mL
same,vascular congestion in the outer medullary region (gross findings),[5],less-congested
same,proportion of TUNEL-positive cells,[5]; CM + drug,24.01±2.90%
same,microscopic renal injury score,"[5]; CM + drug, score 0-4",0.53±0.16
